Here are results for 25 molecules from EP4775568A1, “NOVEL COMPOUND AND USE THEREOF FOR TREATING PSORIASIS” (Gwangju Institute of Science and Technology, priority 2023, dated 2025).

Bounds are passed on as bounds.

One test has as its target T1, CMKLR1 (Homo sapiens, UniProt Q99788).
T1 construct: expressed in transfected cells; host or cells: CHO-K1 cells expressing Gα-16 (CHO-Ga16-CMKLR1)
T1 sequence (Q99788 1-373): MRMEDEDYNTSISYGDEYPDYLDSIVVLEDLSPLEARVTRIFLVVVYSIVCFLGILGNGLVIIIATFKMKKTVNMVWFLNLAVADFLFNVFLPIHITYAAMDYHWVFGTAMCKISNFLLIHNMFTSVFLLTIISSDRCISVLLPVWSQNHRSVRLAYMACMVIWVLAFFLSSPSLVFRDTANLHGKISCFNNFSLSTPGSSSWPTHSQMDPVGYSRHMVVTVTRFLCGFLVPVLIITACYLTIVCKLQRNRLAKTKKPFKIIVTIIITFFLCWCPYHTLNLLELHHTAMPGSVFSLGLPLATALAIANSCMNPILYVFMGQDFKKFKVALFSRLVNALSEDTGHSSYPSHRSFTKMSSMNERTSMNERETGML
Description: Calcium mobilization assay (CHO-Ga16-CMKLR1 cells, chemerin-9 induced signal). It counts as cell-based. The following applies: Table 2, IC50 class, calcium signal induced by 2.5 nM chemerin-9. On the procedure:
To establish a CMKLR1 calcium mobilization cell evaluation system, CHO-K1 cells expressing Gα-16 were transfected with pcDNA3.1-derived human CMKLR1-expressing plasmids using Lipofectamine 2000 (Invitrogen, Waltham, Massachusetts, USA). […] The established cell line (CHO-Ga16-CMKLR1) was cultured in F-12 medium (Invitrogen) supplemented with 10% (v/v) fetal bovine serum (FBS; Invitrogen), 0.5 mg/mL geneticin, 0.2 mg/mL hygromycin B (Clontech), and 1% (v/v) antibiotic-antimycotic solution (Invitrogen) under 5% CO2 at 37°C.
100 µL/well was added to a 96-well plate (Corning) and incubated for 24 h. The buffer solution was prepared by adding 1 M HEPES solution to Hanks' Balanced Salt Solution (HBSS) (Invitrogen) and adjusting the pH to 7.4 by dropwise addition of 1 M NaOH.
The fluorescent dye solution was prepared using the buffer provided with the Calcium 5 Assay Kit (Molecular Devices). 40 µL/well of dye solution was added to each well and incubated at 37°C in a 5% CO2 atmosphere for 30 min. […] The final DMSO concentration was adjusted to 2%. 40 µL of each compound solution was added to the well and incubated for 30 min. […] Prism 5 software (GraphPad) was then used to obtain IC50 values for various compounds. IC50 values were derived based on concentration-response curves, and all experiments were repeated at least three times.
Background: Calcium assays in cells follow changes in intracellular calcium, usually with a dye or a luminescent sensor.
What is called IC50 is the concentration needed to halve the response being measured. On to `Cc1ccc(-c2nn(C3CCCC3)c3cc(COc4ccc(C(C)CC(=O)O)cc4)ccc23)cc1` (stereo not shown) [Compound 11, 3-(4-((1-cyclopentyl-3-(p-tolyl)-1H-indazol-6-yl)methoxy)phenyl)butanoic acid], for which the IC50 was over 1 µM.

As for `CC(CC(=O)O)c1ccc(OCc2ccc3c(-c4cccc(O)c4)nn(C4CCCC4)c3c2)cc1` (stereo not shown) [Compound 14, 3-(4-((1-cyclopentyl-3-(3-hydroxyphenyl)-1H-indazol-6-yl)methoxy)phenyl)butanoic acid], the IC50 is over 1 µM.

For the molecule `COc1ccc(-c2nn(C3CCCC3)c3cc(COc4ccc(C(C)CC(=O)O)cc4)ccc23)cc1` (stereo not shown) [Compound 15, 3-(4-((1-cyclopentyl-3-(4-methoxyphenyl)-1H-indazol-6-yl)methoxy)phenyl)butanoic acid], the IC50 is over 1 µM.

For the molecule `CC(CC(=O)O)c1ccc(OCc2ccc3c(-c4ccc(Cl)cc4)nn(C4CCCC4)c3c2)cc1` (stereo not shown) [Compound 18, 3-(4-((3-(4-chlorophenyl)-1-cyclopentyl-1H-indazol-6-yl)methoxy)phenyl)butanoic acid], the IC50 was over 1 µM.

Turning to `CC(CC(=O)O)c1ccc(OCc2ccc3c(-c4cc(Cl)c(O)c(Cl)c4)nn(C4CCCC4)c3c2)cc1` (stereo not shown) [Compound 20, 3-(4-((1-cyclopentyl-3-(3,5-dichloro-4-hydroxyphenyl)-1H-indazol-6-yl)methoxy)phenyl)butanoic acid], the IC50 lay in the range of 0.1 to 1 µM.

With `CC(CC(=O)O)c1ccc(OCc2ccc3c(-c4cc(C(F)(F)F)cc(C(F)(F)F)c4)nn(C4CCCC4)c3c2)cc1` (stereo not shown) [Compound 22, 3-(4-((3-(3,5-bis(trifluoromethyl)phenyl)-1-cyclopentyl-1H-indazol-6-yl)methoxy)phenyl)butanoic acid], the IC50 was over 1 µM.

Take `CC(CC(=O)O)c1ccc(OCc2ccc3c(-c4ccncc4)nn(C4CCCC4)c3c2)cc1` (stereo not shown) [Compound 23, 3-(4-((1-cyclopentyl-3-(pyridin-4-yl)-1H-indazol-6-yl)methoxy)phenyl)butanoic acid]: the IC50 was over 1 µM.

In the case of `CC(CC(=O)O)c1ccc(OCc2ccc3c(-c4ccc(-c5ccccc5)cc4)nn(C4CCCC4)c3c2)cc1` (stereo not shown) [Compound 24, 3-(4-((3-([1,1'-biphenyl]-4-yl)-1-cyclopentyl-1H-indazol-6-yl)methoxy)phenyl)butanoic acid], the IC50 was over 1 µM.

On to `CC(CC(=O)O)c1ccc(OCc2ccc3c(-c4cc5ccccc5s4)nn(C4CCCC4)c3c2)cc1` (stereo not shown) [Compound 25, 3-(4-((3-(benzo[b]thiophen-2-yl)-1-cyclopentyl-1H-indazol-6-yl)methoxy)phenyl)butanoic acid], for which the IC50 is over 1 µM.

Regarding `CC(CC(=O)O)c1ccc(OCc2ccc3c(-c4cccc5ccccc45)nn(C4CCCC4)c3c2)cc1` (stereo not shown) [Compound 26, 3-(4-((1-cyclopentyl-3-(naphthalen-1-yl)-1H-indazol-6-yl)methoxy)phenyl)butanoic acid], the IC50 is over 1 µM.

As to `CCC(CC)Oc1ccc(-c2nn(C3CCCC3)c3cc(COc4ccc(C(C)CC(=O)O)cc4)ccc23)cc1` (stereo not shown) [Compound 27, 3-(4-((1-cyclopentyl-3-(4-(pentan-3-yloxy)phenyl)-1H-indazol-6-yl)methoxy)phenyl)butanoic acid], the IC50 is over 1 µM.

For the molecule `CC(CC(=O)O)c1ccc(OCc2ccc3c(-c4ccc(OC/C=C/C(=O)O)cc4)nn(C4CCCC4)c3c2)cc1` (stereo not shown) [Compound 28, (E)-4-(4-(6-((4-(1-carboxypropan-2-yl)phenoxy)methyl)-1-cyclopentyl-1H-indazol-3-yl)phenoxy)but-2-enoic acid], the IC50 is over 1 µM.

On to `CCOc1ccc(-c2nn(C3CCCC3)c3cc(COc4ccc(C(C)CC(=O)O)cc4)ccc23)cc1` (stereo not shown) [Compound 29, 3-(4-((1-cyclopentyl-3-(4-ethoxyphenyl)-1H-indazol-6-yl)methoxy)phenyl)butanoic acid], for which the IC50 was over 1 µM.

The test is the same for the next values; noted with them: Table 3, IC50 class, calcium signal induced by 2.5 nM chemerin-9.
`C=CCOc1ccc(-c2nn(C3CCCC3)c3cc(COc4ccc(C(C)CC(=O)O)cc4)ccc23)cc1` (stereo not shown) [Compound 30, 3-(4-((3-(4-(allyloxy)phenyl)-1-cyclopentyl-1H-indazol-6-yl)methoxy)phenyl)butanoic acid]: the IC50 lay within 0.1 to 1 µM.

In the case of `CC(CC(=O)O)c1ccc(OCc2ccc3c(-c4ccc5c(c4)OCO5)nn(C4CCCC4)c3c2)cc1` (stereo not shown) [Compound 31, 3-(4-((3-(Benzo[d][1,3]dioxol-5-yl)-1-cyclopentyl-1H-indazol-6-yl)methoxy)phenyl)butanoic acid], the half-inhibitory concentration (IC50) is over 1 µM.

As to `CC(CC(=O)O)c1ccc(OCc2ccc3c(-c4nnn[nH]4)nn(C4CCCC4)c3c2)cc1` (stereo not shown) [Compound 32, 3-(4-((1-cyclopentyl-3-(1H-tetrazol-5-yl)-1H-indazol-6-yl)methoxy)phenyl)butanoic acid], the IC50 is over 1 µM.

As to `CC(CC(=O)O)c1ccc(OCc2ccc3c(-c4cc(Cl)nc(Cl)c4)nn(C4CCCC4)c3c2)cc1` (stereo not shown) [Compound 33, 3-(4-((1-cyclopentyl-3-(2,6-dichloropyridin-4-yl)-1H-indazol-6-yl)methoxy)phenyl)butanoic acid], the half-inhibitory concentration (IC50) was over 1 µM.

Turning to `CC(CC(=O)O)c1ccc(OCc2ccc3c(-c4cc(F)c(/C=N/O)c(F)c4)nn(C4CCCC4)c3c2)cc1` (stereo not shown) [Compound 34, (E)-3-(4-((1-cyclopentyl-3-(3,5-difluoro-4-((hydroxyimino)methyl)phenyl)-1H-indazol-6-yl)methoxy)phenyl)butanoic acid], the IC50 lay in the range of 0.1 to 1 µM.

As to `C[C@@H](CC(=O)O)c1ccc(OCc2ccc3c(-c4ccc(O)c([N+](=O)[O-])c4)nn(C4CCCC4)c3c2)cc1` [Compound 37, (S)-3-(4-((1-cyclopentyl-3-(4-hydroxy-3-nitrophenyl)-1H-indazol-6-yl)methoxy)phenyl)butanoic acid], the IC50 is over 1 µM.

For `C[C@@H](CC(=O)O)c1ccc(OCc2ccc3c(-c4ccc(O)c(O)c4)nn(C4CCCC4)c3c2)cc1` [Compound 38], the IC50 was over 1 µM.

`C[C@@H](CC(=O)O)c1ccc(OCc2ccc3c(-c4ccc(O)cc4Cl)nn(C4CCCC4)c3c2)cc1` [Compound 42, (S)-3-(4-((3-(2-chloro-4-hydroxyphenyl)-1-cyclopentyl-1H-indazol-6-yl)methoxy)phenyl)butanoic acid]: the IC50 fell in the range of 0.1 to 1 µM.

Staying with this test, now noted: read-out: CMKLR1 activity in CHO cells (% inhibition at 10 µM), 10 µM compound, relative to calcium signal induced by 2.5 nM chemerin-9.
By inhibition is commonly meant the share of the control response that was lost under treatment. Consider `CC(C)n1nc(-c2ccccc2)c2ccc(COc3ccc(CC(C)(C)C(=O)O)cc3)cc21` [Compound 3, 3-(4-((1-isopropyl-3-phenyl-1H-indazol-6-yl)methoxy)phenyl)-2,2-dimethylpropanoic acid], for which the inhibition at 10 µM was found to be 10%.

As to `CC(CC(=O)O)c1ccc(OCc2ccc3c(-c4ccccc4)nn(C(C)C)c3c2)cc1` (stereo not shown) [Compound 7, 3-(4-((1-isopropyl-3-phenyl-1H-indazol-6-yl)methoxy)phenyl)butanoic acid], the inhibition at 10 µM is 81%.

For `CC(C)C(CC(=O)O)c1ccc(OCc2ccc3c(-c4ccccc4)nn(C(C)C)c3c2)cc1` (stereo not shown) [Compound 8, 3-(4-((1-isopropyl-3-phenyl-1H-indazol-6-yl)methoxy)phenyl)-4-methylpentanoic acid], the inhibition at 10 µM was 25%.

Take `CCC(CC(=O)O)c1ccc(OCc2ccc3c(-c4ccccc4)nn(C(C)C)c3c2)cc1` (stereo not shown) [Compound 9, 3-(4-((1-isopropyl-3-phenyl-1H-indazol-6-yl)methoxy)phenyl)pentanoic acid]: the inhibition at 10 µM is 81%.
